In patent US12558428B2, “Heterobifunctional compounds and their use in treating disease” (Halda Therapeutics OpCo, Inc., priority 2024, dated 2026):

Tests used:
Type in all cases: cell-based
[1] = test system: T-Rex 293 cells having increased expression of estrogen receptor alpha protein; test: Cellular growth inhibition assay, T-Rex 293 cells, (+) doxycycline; details: T-REx-293, 72 h, Table 7-A; T-Rex 293 cells with doxycycline (increased ERα expression); 72 hours; CellTiter-Glo; read-out: (+) Dox GI50
Procedure, shortened: (§1)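 Cells of an inducible ERα-expressing T-Rex 293 clone are seeded in charcoal-dextran FBS medium with or without 3 ng/mL doxycycline, then treated after 24 h with compound dilutions (0.5% DMSO) for 72 h. Growth inhibition is measured by CellTiter-Glo luminescence and expressed as GI50.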

[2] = test system: T-Rex 293 cells lacking increased expression of estrogen receptor alpha protein; test: Cellular growth inhibition assay, T-Rex 293 cells, (−) doxycycline; details: T-REx-293, 72 h, Table 7-A; T-Rex 293 cells without doxycycline (lacking increased ERα expression); 72 hours; CellTiter-Glo; read-out: (−) Dox GI50
Procedure, shortened: as §1

[3] = test system: MCF7 cells (ATCC #HTB-22); test: Cellular growth inhibition assay, MCF7 cells purchased from ATCC; details: Homo sapiens, MCF7, 144 h, Table 8-A; MCF7 cells purchased from ATCC; six days; CellTiter-Glo; read-out: GI50
Procedure, shortened: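 GI50 values come from a four-parameter fit of CellTiter-Glo 2.0 luminescence after six days of compound exposure at 37° C. Seeding density depended on the source: 225 cells/well for ECACC MCF7, 1,500 for ATCC. Medium was RPMI 1640 with 10% FBS and 0.2 U/ml insulin.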

GI50 [3] | Structure (SMILES) | GI50 [1] | GI50 [2]
< 50 nM | COc1cc(N2CCN(CC3(O)CCN(c4cc(F)c(C5=N[C@@H](C)c6nnc(C)n6-c6sc(C)c(C)c65)cc4F)CC3)CC2)ccc1[C@@H]1c2ccc(O)cc2CC[C@@H]1c1ccccc1 [III-339, 1-(2,5-difluoro-4-((S)-2,3,6,9-tetramethyl-6H-thieno[3,2-f][1,2,4]triazolo[4,3-a][1,4]diazepin-4-yl)phenyl)-4-((4-(4-((1S,2S)-6-hydroxy-2-phenyl-1,2,3,4-tetrahydronaphthalen-1-yl)-3-methoxyphenyl)piperazin-1-yl)methyl)piperidin-4-ol] | < 50 nM | > 2500 nM
50 to 500 nM | Cc1sc2c(c1C)C(c1ccc(N3CCC4(CCN(CC5CCN(c6ccc([C@@H]7c8ccc(O)cc8CC[C@@H]7c7ccccc7)cc6)CC5)CC4)C3)cc1)=N[C@@H](C)c1nnc(C)n1-2 [III-190] | < 50 nM | 500 to 2500 nM
50 to 500 nM | COc1ccc(-c2sc3cc(OC)ccc3c2C(=O)c2ccc(OCCN3CCC(CCOc4ccc(C5=N[C@@H](Cc6ncco6)c6nnc(C)n6-c6sc(C)c(C)c65)cc4)CC3)cc2)cc1 [V-3] | 50 to 500 nM | 50 to 500 nM
< 50 nM | Cc1sc2c(c1C)C(c1ccc(N3CCC(O)(CN4CCN(c5ccc(C6=C(c7ccccc7Cl)CCCc7cc(C(=O)O)ccc76)c(F)c5)CC4)CC3)cc1)=N[C@@H](Cc1ncco1)c1nnc(C)n1-2 [IV-60] | < 50 nM | 50 to 500 nM
< 50 nM | Cc1sc2c(c1C)C(c1ccc(N3CC(CN4CCN(CC5CN(c6ccc(C7=C(c8ccc(Cl)cc8Cl)CCCc8cc(C(=O)O)ccc87)cc6)C5)CC4)C3)cc1)=N[C@@H](C)c1nnc(C)n1-2 [IV-8] | < 50 nM | 500 to 2500 nM
< 50 nM | Cc1sc2c(c1C)C(c1ccc(N3CCC(O)(CN4CCN(c5cc(F)c([C@@H]6c7ccc(O)cc7CC[C@@H]6c6ccc(F)cc6)c(F)c5)CC4)CC3)cc1)=N[C@@H](C)c1nnc(C)n1-2 [III-236] | < 50 nM | 500 to 2500 nM
< 50 nM | Cc1sc2c(c1C)C(c1ccc(N3CC(C[C@H]4CC[C@H](CN5CC(c6ccc(C7=C(c8ccccc8)CCCc8cc(C(=O)O)ccc87)cc6)C5)CC4)C3)cc1)=N[C@@H](C)c1nnc(C)n1-2 [IV-24] | < 50 nM | 500 to 2500 nM
50 to 500 nM | Cc1sc2c(c1C)C(c1ccc(N3CCO[C@@H](CNCCOc4ccc([C@@H]5c6ccc(O)cc6CC[C@@H]5c5ccccc5)cc4)C3)cc1)=NC(Cc1ncco1)c1nnc(C)n1-2 (stereo partly drawn) [III-66] | 50 to 500 nM | 50 to 500 nM
50 to 500 nM | Cc1cc([C@H]2c3ccc(O)cc3CC[C@H]2c2ccccc2)c(F)cc1N1CCN(CC2(O)CCN(c3ccc(C4=N[C@@H](C)c5nnc(C)n5-c5sc(C)c(C)c54)cc3)CC2)CC1 [III-288] | 50 to 500 nM | 500 to 2500 nM
< 50 nM | Cc1sc2c(c1C)C(c1ccc(N3CCC(O)(CN4CCN(c5ccc([C@@H]6c7ccc(O)cc7CC[C@@H]6c6ccc(F)cc6)cc5)CC4)CC3)cc1)=N[C@@H](C)c1nnc(C)n1-2 [III-185] | < 50 nM | 500 to 2500 nM
50 to 500 nM | Cc1sc2c(c1C)C(c1ccc(C3CN(CC4(O)CCN(C(=O)C5CN(c6ccc([C@@H]7c8ccc(O)cc8CC[C@@H]7c7ccccc7)cc6)C5)CC4)C3)cc1)=N[C@@H](C)c1nnc(C)n1-2 [III-171] | < 50 nM | 50 to 500 nM
50 to 500 nM | Cc1sc2c(c1C)C(c1ccc(N3CCN(CC4CN(c5ccc([C@H]6c7ccc(O)cc7CC[C@H]6c6ccccc6)cc5)C4)CC3)cc1)=N[C@@H](C)c1nnc(C)n1-2 [III-68] | 50 to 500 nM | 500 to 2500 nM
< 50 nM | Cc1sc2c(c1C)C(c1ccc(N3CC(O)(CN4CCN(CC5CN(c6ccc([C@@H]7c8ccc(O)cc8CC[C@@H]7c7ccccc7)cc6)C5)CC4)C3)cc1)=N[C@@H](Cc1ncco1)c1nnc(C)n1-2 [III-181] | < 50 nM | 50 to 500 nM
